In PubChem BioAssay (NCI):
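All cell lines were grown in 96-well plates and treated with compound for 48 hours. Here, GI50 denotes the concentration required for 50% inhibition of growth. Definition used: TGI = concentration required for complete inhibition of growth.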

Legend:
Experiment in all cases: NCI tumour cell line growth inhibition, 48 h; in the data active = GI50 below about 0.43 µM; inactive = the rest
[1] = test system: UACC-62 melanoma
[2] = test system: MDA-MB-435
[3] = test system: SF-268 CNS
[4] = test system: HOP-92 NSCLC
[5] = test system: SNB-19 CNS
[6] = test system: NCI-H460 lung
[7] = test system: IGROV1 ovarian
[8] = test system: DU-145 prostate
[9] = test system: T-47D breast
[10] = test system: HCT-116 colon
[11] = test system: HS 578T breast
[12] = test system: SF-539 CNS
[13] = test system: UACC-257 melanoma
[14] = test system: COLO 205 colon
[15] = test system: SW-620 colon
[16] = test system: A498 renal
[17] = test system: SNB-75 CNS
[18] = test system: TK-10 renal
[19] = test system: RXF 393 renal
[20] = test system: SK-MEL-28 melanoma
[21] = test system: A549 NSCLC
[22] = test system: RPMI-8226 leukemia
[23] = test system: OVCAR-5 ovarian
[24] = test system: HCT-15 colon
[25] = test system: U251 CNS
[26] = test system: LOX IMVI melanoma
[27] = test system: K-562 leukemia
[28] = test system: NCI-H23 lung
[29] = test system: MCF7 breast
[30] = test system: OVCAR-3 ovarian
[31] = test system: NCI-H226 lung
[32] = test system: HL-60(TB) leukemia
[33] = test system: MOLT-4 leukemia
[34] = test system: HT29 colon
[35] = test system: SR leukemia
[36] = test system: HOP-62 NSCLC
[37] = test system: SK-MEL-5 melanoma
[38] = test system: CAKI-1 renal
[39] = test system: MALME-3M melanoma
[40] = test system: CCRF-CEM leukemia
[41] = test system: SF-295 CNS
[42] = test system: SK-MEL-2 melanoma
[43] = test system: EKVX NSCLC
[44] = test system: UO-31 renal
[45] = test system: MDA-MB-231 breast
[46] = test system: 786-0 renal
[47] = test system: NCI/ADR-RES ovarian
[48] = test system: SK-OV-3 ovarian
[49] = test system: PC-3 prostate
[50] = test system: OVCAR-8 ovarian
[51] = test system: SN12C renal
[52] = test system: KM12 colon
[53] = test system: M14 melanoma
[54] = test system: NCI-H522 lung
[55] = test system: BT-549 breast
[56] = test system: HCC-2998 colon
[57] = test system: ACHN renal

O=C1c2cccc(Oc3ccccc3)c2C(=O)c2cccc(Oc3ccccc3)c21
51.2 µM: TGI [4]
42.7 µM: TGI [17]
72.1 µM: TGI [5]
30.3 µM: TGI [40]
36.4 µM: TGI [19]
inactive: GI50 [1] > 100 µM | GI50 [2] > 100 µM | GI50 [3] 39.8 µM | GI50 [4] 8.98 µM | GI50 [5] 9.56 µM | GI50 [6] > 100 µM | GI50 [7] > 100 µM | GI50 [8] > 100 µM | GI50 [9] > 100 µM | GI50 [10] > 100 µM | GI50 [11] 7.68 µM | GI50 [12] 41.5 µM | GI50 [13] > 100 µM | GI50 [14] > 100 µM | GI50 [15] > 100 µM | GI50 [16] > 100 µM | GI50 [17] 9.13 µM | GI50 [18] > 100 µM | GI50 [19] 4.7 µM | GI50 [20] > 100 µM | GI50 [21] > 100 µM | GI50 [22] > 100 µM | GI50 [23] > 100 µM | GI50 [24] > 100 µM | GI50 [25] 33.3 µM | GI50 [26] > 100 µM | GI50 [27] > 100 µM | GI50 [28] > 100 µM | GI50 [29] > 100 µM | GI50 [30] > 100 µM | GI50 [31] > 100 µM | GI50 [32] > 100 µM | GI50 [33] > 100 µM | GI50 [34] > 100 µM | GI50 [35] 77.5 µM | GI50 [36] 5.05 µM | GI50 [37] > 100 µM | GI50 [38] > 100 µM | GI50 [39] > 100 µM | GI50 [40] 7.14 µM | GI50 [41] 22.2 µM | GI50 [42] 96.7 µM | GI50 [43] > 100 µM | GI50 [44] > 100 µM | GI50 [45] 44.8 µM | GI50 [46] 27.5 µM | GI50 [47] > 100 µM | GI50 [48] 9.39 µM | GI50 [49] > 100 µM | GI50 [50] > 100 µM | GI50 [51] > 100 µM | GI50 [52] > 100 µM | GI50 [53] > 100 µM | GI50 [54] > 100 µM | GI50 [55] 22.9 µM | GI50 [56] > 100 µM | GI50 [57] > 100 µM
> 100 µM: TGI [1] | TGI [2] | TGI [3] | TGI [6] | TGI [7] | TGI [8] | TGI [9] | TGI [10] | TGI [11] | TGI [12] | TGI [13] | TGI [14] | TGI [15] | TGI [16] | TGI [18] | TGI [20] | TGI [21] | TGI [22] | TGI [23] | TGI [24] | TGI [25] | TGI [26] | TGI [27] | TGI [28] | TGI [29] | TGI [30] | TGI [31] | TGI [32] | TGI [33] | TGI [34] | TGI [35] | TGI [36] | TGI [37] | TGI [38] | TGI [39] | TGI [41] | TGI [42] | TGI [43] | TGI [44] | TGI [45] | TGI [46] | TGI [47] | TGI [48] | TGI [49] | TGI [50] | TGI [51] | TGI [52] | TGI [53] | TGI [54] | TGI [55] | TGI [56] | TGI [57]
